The values below come from ChEMBL document CHEMBL1150104, “Isolation and structure identification of an active DNA strand-scission agent, (+)-3,4-di-hydroxy-8,9-methylenedioxypterocarpan” (1995).

Values after ≈ are worked out from the molar mass of the structure shown. Active and inactive are the calls of the source. The rule behind the calls is not given here.

One assay deals with KB. Put plainly: Cytotoxicity against human KB cells. The format is functional. The conditions noted are these: read-out: ED50 (the source's name).
Assay [1] deals with Nucleic Acid. Put plainly: Induction of DNA strand scission activity in Escherichia coli pBR322 at 25 ug/mL by electrophoresis. The format is nucleic-acid assay.
In assay [2] the test system is Nucleic Acid. Put plainly: Induction of DNA strand scission activity in Escherichia coli pBR322 at 0.1 ug/mL by electrophoresis. The format is nucleic-acid assay.

For `Oc1ccc2c(c1O)OC[C@@H]1c3cc4c(cc3O[C@H]21)OCO4`, the EC50 in the assay on KB amounted to 0.9 µg/mL (≈ 3 µM). In the assay on Nucleic Acid [1], the outcome was Active.

Turning to BLEOMYCIN SULFATE, in the assay with Nucleic Acid [2], the result was Active.

In the case of `COc1ccc2c(c1O)OC[C@@H]1c3cc4c(cc3O[C@H]21)OCO4`, in the assay on KB, the EC50 is 4 µg/mL (≈ 12.7 µM). Also, the outcome in the assay on Nucleic Acid [1] was inactive.

Take `Oc1ccc2c(c1)OC[C@@H]1c3cc4c(cc3O[C@H]21)OCO4` [(+)-MAACKIAIN]: the EC50 with KB was determined as 5.6 µg/mL (≈ 19.7 µM). For the same molecule, the result with Nucleic Acid [1] was inactive.
